Legend:
[1] = molecular target: T1, human FAAH (Homo sapiens, UniProt O00519); assay: Assay Method 1: FAAH assay, hydrolysis of 3H-anandamide by homogenate of SK-N-MC cells transfected with human FAAH; format: biochemical; conditions: human FAAH; T84 or transfected SK-N-MC cell homogenate; 3H-AEA tracer 80 nM; rt 1 h; pH 9; read-out: Assay 1 IC50
T1 construct: expressed in transfected cells
T1 sequence (O00519 1-579): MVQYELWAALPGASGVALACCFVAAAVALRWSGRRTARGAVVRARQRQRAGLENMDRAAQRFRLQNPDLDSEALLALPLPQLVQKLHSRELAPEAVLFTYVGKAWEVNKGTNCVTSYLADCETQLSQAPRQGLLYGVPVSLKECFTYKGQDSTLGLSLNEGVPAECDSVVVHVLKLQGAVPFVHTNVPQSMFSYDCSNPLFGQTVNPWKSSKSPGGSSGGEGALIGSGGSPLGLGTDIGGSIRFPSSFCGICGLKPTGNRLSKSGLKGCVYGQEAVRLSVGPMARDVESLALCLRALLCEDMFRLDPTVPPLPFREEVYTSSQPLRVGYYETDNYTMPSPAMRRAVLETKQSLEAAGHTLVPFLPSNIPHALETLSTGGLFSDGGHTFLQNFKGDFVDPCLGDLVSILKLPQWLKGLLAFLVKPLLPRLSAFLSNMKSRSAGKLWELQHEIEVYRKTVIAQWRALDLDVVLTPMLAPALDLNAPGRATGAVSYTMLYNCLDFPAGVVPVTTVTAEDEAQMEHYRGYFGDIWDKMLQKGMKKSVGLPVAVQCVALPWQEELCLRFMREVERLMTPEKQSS
Procedure, shortened: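 Homogenate of SK-N-MC cells stably expressing human FAAH (G418-selected clones) incubated with compound and 80 nM [1-3H-ethanolamine]anandamide for 1 h at rt. Released 3H-ethanolamine separated from substrate by activated-charcoal filtration, then counted by scintillation.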

[2] = molecular target: T2, rat FAAH (Rattus norvegicus, UniProt P97612); assay: Assay Method 2: FAAH assay, hydrolysis of 3H-anandamide by homogenate of SK-N-MC cells transfected with rat FAAH; format: biochemical; conditions: T84 or transfected SK-N-MC cell homogenate, 3H-AEA tracer 80 nM, rt 1 h, pH 9
T2 construct: expressed in transfected cells
T2 sequence (P97612 1-579): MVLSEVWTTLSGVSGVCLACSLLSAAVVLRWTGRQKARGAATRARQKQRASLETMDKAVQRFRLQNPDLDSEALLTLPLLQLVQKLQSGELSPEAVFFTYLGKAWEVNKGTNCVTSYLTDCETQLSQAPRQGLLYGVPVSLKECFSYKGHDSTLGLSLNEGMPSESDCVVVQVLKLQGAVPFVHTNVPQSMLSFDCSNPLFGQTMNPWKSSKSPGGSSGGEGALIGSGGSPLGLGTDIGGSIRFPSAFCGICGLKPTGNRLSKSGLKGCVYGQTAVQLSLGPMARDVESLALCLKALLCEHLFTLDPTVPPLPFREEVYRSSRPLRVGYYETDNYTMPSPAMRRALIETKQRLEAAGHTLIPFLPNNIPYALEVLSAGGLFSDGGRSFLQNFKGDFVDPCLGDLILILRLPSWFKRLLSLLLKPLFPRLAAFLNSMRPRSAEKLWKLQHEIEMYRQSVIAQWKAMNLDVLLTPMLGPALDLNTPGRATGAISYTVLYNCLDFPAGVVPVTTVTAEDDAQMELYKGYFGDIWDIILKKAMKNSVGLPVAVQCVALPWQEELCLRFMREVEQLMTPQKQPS
Procedure, shortened: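 Rat FAAH activity from homogenate of G418-selected, electroporated SK-N-MC clones was measured as release of radiolabelled ethanolamine from 3H-anandamide. After 1 h at rt, charcoal filtration retained substrate, and scintillation counting of the flow-through gave the read-out.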

Structure (SMILES) | IC50 [1] [µM] | IC50 [2] [µM]
O=C(CCCC1CCN(S(=O)(=O)c2ccc(Cl)cc2)CC1)c1ncco1 [Example 60, 4-[1-(4-Chloro-benzenesulfonyl)-piperidin-4-yl]-1-oxazol-2-yl-butan-1-one] | 0.004 | 0.034
COc1ccc(S(=O)(=O)N2CCC(CCCC(=O)c3ncco3)CC2)cc1 [Example 61, 4-[1-(4-Methoxy-benzenesulfonyl)-piperidin-4-yl]-1-oxazol-2-yl-butan-1-one] | 0.002 | 0.037
O=C(CCCC1CCN(S(=O)(=O)c2ccc(Cl)c(Cl)c2)CC1)c1ncco1 [Example 62, 4-[1-(3,4-Dichloro-benzenesulfonyl)-piperidin-4-yl]-1-oxazol-2-yl-butan-1-one] | 0.014 | 0.11
O=C(CCCC1CCN(C(=O)OCc2ccccc2)CC1)c1ncco1 [Example 63, 4-(4-Oxazol-2-yl-4-oxo-butyl)-piperidine-1-carboxylic acid benzyl ester] | 0.003 | 0.002
CCOC(=O)N1CCC(CCCC(=O)c2ncco2)CC1 [Example 64, 4-(4-Oxazol-2-yl-4-oxo-butyl)-piperidine-1-carboxylic acid ethyl ester] | 0.006 | 0.014
COCCOC(=O)N1CCC(CCCC(=O)c2ncco2)CC1 [Example 65, 4-(4-Oxazol-2-yl-4-oxo-butyl)-piperidine-1-carboxylic acid 2-methoxy-ethyl ester] | 0.069 | 0.24
O=C(CCCC1CCN(C(=O)OCCOCc2ccccc2)CC1)c1ncco1 [Example 66, 4-(4-Oxazol-2-yl-4-oxo-butyl)-piperidine-1-carboxylic acid 2-benzyloxy-ethyl ester] | 0.0007 | 0.002
CC(C)(C)COC(=O)N1CCC(CCCC(=O)c2ncco2)CC1 [Example 67, 4-(4-Oxazol-2-yl-4-oxo-butyl)-piperidine-1-carboxylic acid 2,2-dimethyl-propyl ester] | 0.05 | 0.118
CC(C)COC(=O)N1CCC(CCCC(=O)c2ncco2)CC1 [Example 68, 4-(4-Oxazol-2-yl-4-oxo-butyl)-piperidine-1-carboxylic acid isobutyl ester] | 0.01 | 0.055
CC(C)OC(=O)N1CCC(CCCC(=O)c2ncco2)CC1 [Example 69, 4-(4-Oxazol-2-yl-4-oxo-butyl)-piperidine-1-carboxylic acid isopropyl ester] | 0.004 | 0.009
CCCOC(=O)N1CCC(CCCC(=O)c2ncco2)CC1 [Example 70, 4-(4-Oxazol-2-yl-4-oxo-butyl)-piperidine-1-carboxylic acid propyl ester] | 0.007 | 0.019
O=C(CCCC1CCN(Cc2cccc(-c3ccccc3)c2)CC1)c1ncco1 [Example 72, 4-(1-Biphenyl-3-ylmethyl-piperidin-4-yl)-1-oxazol-2-yl-butan-1-one] | 0.0009 | 0.002
Cc1ccccc1CN1CCC(CCCC(=O)c2ncco2)CC1 [Example 80, 4-[1-(2-Methyl-benzyl)-piperidin-4-yl]-1-oxazol-2-yl-butan-1-one] | 1.2 | 2
O=C(CCCC1CCN(Cc2ccccc2Cl)CC1)c1ncco1 [Example 84, 4-[1-(2-Chloro-benzyl)-piperidin-4-yl]-1-oxazol-2-yl-butan-1-one] | 0.26 | 0.563
O=C(CCCC1CCN(Cc2ccccc2Br)CC1)c1ncco1 [Example 85, 4-[1-(2-Bromo-benzyl)-piperidin-4-yl]-1-oxazol-2-yl-butan-1-one] | 0.315 | 0.24
O=C(CCCC1CCN(Cc2cccc(Br)c2)CC1)c1ncco1 [Example 90, 4-[1-(3-Bromo-benzyl)-piperidin-4-yl]-1-oxazol-2-yl-butan-1-one] | 0.01 | 0.118
O=C(CCCC1CCN(Cc2ccc(Br)cc2)CC1)c1ncco1 [Example 91, 4-[1-(4-Bromo-benzyl)-piperidin-4-yl]-1-oxazol-2-yl-butan-1-one] | 0.045 | 0.27
O=C(CCCC1CCN(Cc2ccnc3ccccc23)CC1)c1ncco1 [Example 93, 1-Oxazol-2-yl-4-(1-quinolin-4-ylmethyl-piperidin-4-yl)-butan-1-one] | 0.07 | 0.923
Cc1ccc(Oc2ccc(CN3CCC(CCCC(=O)c4ncco4)CC3)cn2)cc1 [Example 96, 1-Oxazol-2-yl-4-[1-(6-p-tolyloxy-pyridin-3-ylmethyl)-piperidin-4-yl]-butan-1-one] | 0.125 | 0.132

Results, then the compound that gave them:

IC50 [1] [µM] | IC50 [2] [µM] | Structure (SMILES)
0.007 | 0.049 | CCc1ccc(CN2CCC(CCCC(=O)c3ncco3)CC2)cc1 [Example 71, 4-[1-(4-Ethyl-benzyl)-piperidin-4-yl]-1-oxazol-2-yl-butan-1-one]
0.024 | 0.045 | O=C(CCCC1CCN(Cc2ccc(-c3ccccc3)cc2)CC1)c1ncco1 [Example 73, 4-(1-Biphenyl-4-ylmethyl-piperidin-4-yl)-1-oxazol-2-yl-butan-1-one]
1.3 | 5 | COc1ccc(CN2CCC(CCCC(=O)c3ncco3)CC2)cn1 [Example 74, 4-[1-(6-Methoxy-pyridin-3-ylmethyl)-piperidin-4-yl]-1-oxazol-2-yl-butan-1-one]
0.6 | 1 | O=C(CCCC1CCN(Cc2ccc(Cl)nc2)CC1)c1ncco1 [Example 75, 4-[1-(6-Chloro-pyridin-3-ylmethyl)-piperidin-4-yl]-1-oxazol-2-yl-butan-1-one]
0.4 | 0.65 | O=C(CCCC1CCN(Cc2ccc(Br)nc2)CC1)c1ncco1 [Example 76, 4-[1-(6-Bromo-pyridin-3-ylmethyl)-piperidin-4-yl]-1-oxazol-2-yl-butan-1-one]
0.313 | 1 | O=C(CCCC1CCN(Cc2cccc(Br)n2)CC1)c1ncco1 [Example 77, 4-[1-(6-Bromo-pyridin-2-ylmethyl)-piperidin-4-yl]-1-oxazol-2-yl-butan-1-one]
0.098 | 0.5 | O=C(CCCC1CCN(Cc2cncc(Br)c2)CC1)c1ncco1 [Example 78, 4-[1-(5-Bromo-pyridin-3-ylmethyl)-piperidin-4-yl]-1-oxazol-2-yl-butan-1-one]
0.2 | 1 | O=C(CCCC1CCN(Cc2cccc(F)c2F)CC1)c1ncco1 [Example 81, 4-[1-(2,3-Difluoro-benzyl)-piperidin-4-yl]-1-oxazol-2-yl-butan-1-one]
0.023 | 0.049 | CC(C)Cc1ccc(CN2CCC(CCCC(=O)c3ncco3)CC2)cc1 [Example 82, 4-[1-(4-Isobutyl-benzyl)-piperidin-4-yl]-1-oxazol-2-yl-butan-1-one]
0.007 | 0.084 | CC(C)(C)c1ccc(CN2CCC(CCCC(=O)c3ncco3)CC2)cc1 [Example 83, 4-[1-(4-tert-Butyl-benzyl)-piperidin-4-yl]-1-oxazol-2-yl-butan-1-one]
0.325 | 3 | CN(C)c1ccc(CN2CCC(CCCC(=O)c3ncco3)CC2)cc1 [Example 88, 4-[1-(4-Dimethylamino-benzyl)-piperidin-4-yl]-1-oxazol-2-yl-butan-1-one]
0.13 | 0.7 | CCN(CC)c1ccc(CN2CCC(CCCC(=O)c3ncco3)CC2)cc1 [Example 89, 4-[1-(4-Diethylamino-benzyl)-piperidin-4-yl]-1-oxazol-2-yl-butan-1-one]
0.06 | 0.29 | O=C(CCCC1CCN(Cc2ccc3ccccc3n2)CC1)c1ncco1 [Example 92, 1-Oxazol-2-yl-4-(1-quinolin-2-ylmethyl-piperidin-4-yl)-butan-1-one]
0.4 | 2.1 | Cc1cccc(CN2CCC(CCCC(=O)c3ncco3)CC2)c1C [Example 94, 4-[1-(2,3-Dimethyl-benzyl)-piperidin-4-yl]-1-oxazol-2-yl-butan-1-one]
